Assay results: US20230143470A1, “SMALL MOLECULE INHIBITORS OF INFLUENZA HEMAGGLUTININ” (THE SCRIPPS RESEARCH INSTITUTE, priority 2020, published 2023)

Target: H3/HK68 HA (Influenza A virus, UniProt Q91MA7)
Sequence (Q91MA7 27-521 limits assumed): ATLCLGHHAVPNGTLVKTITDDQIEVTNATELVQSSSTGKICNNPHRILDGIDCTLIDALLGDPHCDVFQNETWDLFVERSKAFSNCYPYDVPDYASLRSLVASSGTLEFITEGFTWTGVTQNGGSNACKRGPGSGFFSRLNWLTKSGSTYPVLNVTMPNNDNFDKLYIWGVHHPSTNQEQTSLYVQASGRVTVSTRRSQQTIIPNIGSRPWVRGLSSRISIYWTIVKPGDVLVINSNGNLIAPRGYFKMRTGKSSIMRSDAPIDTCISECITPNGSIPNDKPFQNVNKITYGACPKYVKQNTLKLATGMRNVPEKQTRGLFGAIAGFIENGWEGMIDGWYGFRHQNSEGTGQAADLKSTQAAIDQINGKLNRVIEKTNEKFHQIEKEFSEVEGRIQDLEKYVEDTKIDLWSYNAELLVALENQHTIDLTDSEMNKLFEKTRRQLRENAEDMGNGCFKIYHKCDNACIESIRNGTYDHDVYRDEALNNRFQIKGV

Structure (SMILES)	melting temperature of H3/HK68 HA
O=C(c1ccc(Cl)cc1Cl)N1CCO[C@H](c2ccccc2)C1 [F0045(R)]	does not change
O=C(c1ccc(Cl)cc1Cl)N1CCO[C@@H](c2ccccc2)C1 [F0045(S)]	does not change
